Reference: PMC10606064, “2-Aminothiazole-Flavonoid Hybrid Derivatives Binding to Tau Protein and Responsible for Antitumor Activity in Glioblastoma” (International Journal of Molecular Sciences, 2023)

Experiments:
[1] = system: SK-N-SH neuroblastoma cells; assay: MTT cell viability assay, SK-N-SH; assay type: cell-based; settings: Homo sapiens, 72 h, mean ± SEM, read-out: IC50 (metabolic activity)
Description: Cells harvested from sub-confluent monolayers were seeded at 15,000 cells per mL in a 96-well microtiter plate (Cambridge Technology, Labège, France) and cultured for 24 h under standard conditions. Standard medium was then replaced by fresh medium containing no drugs or compounds at different concentrations. The surviving cells were quantified after 72 h by the MTT assay, according to the manufacturer’s instructions. Briefly, 20 µL of 3-(4,5-diMethylThiazol-2-yl)-2,5diphenyl Tetrazolium bromide (MTT) solution at 5 mg.mL^−1 was added to cells for 3 h at 37 °C. The supernatant was discarded and replaced by 100 µL of dimethyl sulfoxide to dissolve formazan crystals. The absorbance was then read at 600 nm by spectrophotometry. For all concentrations of a given compound, cell viability was expressed as the percentage of the ratio between the mean absorbance of treated cells and the mean absorbance of untreated cells. Three independent experiments were performed, and the data were expressed as percentage of survival (using the untreated cells as 100%) and subjected to statistical analysis (n = 3). The IC50 was calculated using the Chou and Talalay method.

[2] = system: LC3 proteins in U87 shCTRL and shTau cells; assay: LC3-II/LC3-I ratio by Western blot (autophagosomes); assay type: cell-based, human; settings: both cell types, 5 µM, 48 h
Description: Cells were lysed with freshly made RIPA buffer derivative (4.3 mL of TBS 1×, 50 µL of SDS 10%, 10 µL of EDTA 0.5 M, 500 µL of Triton 10×, and 1% inhibitors of protease and phosphatase). After 30 min of lysis at 4 °C under agitation, lysates were centrifuged at 10,000× g for 10 min at 4 °C. Equivalent amounts of proteins from the supernatant fraction were subjected to Western blot analysis. Protein samples were loaded (40 μg/lane) and separated on 10 or 12% sodium dodecyl sulfate-polyacrylamide gels. The separated proteins were transferred onto nitrocellulose blotting membrane using the Bio-Rad transfer system. […] The band intensity was quantified using the ImageJ v1.50g software. […] The band intensity was quantified using the NIH ImageJ v1.50g software.
Figure 4 Compounds (2) and (9) affect autophagy function machinery and alter mitochondrial morphology. […] (A) Quantities of autophagy LC3 proteins were analyzed by Western blot of U87 shCTRL and U87 shTau cells: for each sample, the ratio of the amount of mature (LC3-II) to immature (LC3-I) isoform was calculated as relative fold of the reference value (with or without the compound); significant statistical differences were calculated using one-way ANOVA with a post hoc Tukey–Kramer HSD test with (*) p < 0.01 from three independent experiments; ns: non-significant. […]

U87 shCTRL cells = assay: 2D random cell motility assay, U87 shCTRL; assay type: cell-based, human; settings: 1.4 µM of compound 2, 1.6 µM of compound 9
Description: Cell motility was recorded by time-lapse videomicroscopy, as previously described. Briefly, cells were trypsinized and then seeded on Fibronectin pre-coated 24-well plates at 10^4 cells per well and allowed to adhere at 37 °C for 2 h in a 5% CO2 incubator. The cells were briefly rinsed in imaging medium (EMEM containing 10% FBS) to remove unattached cells before imaging. For conditions using compounds, agents were added to cells 15 min before launching the recording of the time-lapse series. Next, the plates were placed on an inverted wide-field Nikon microscope equipped with a 10× air objective (NA = 0.3) at 37 °C in 5% CO2. For all conditions, 61 frames of four fields were acquired using a CCD camera (Coolsnap HQ camera, Photometrics, Tucson, AZ, USA) driven by NIS elements AR 2.30 software (Nikon, Heidelberg, Germany). Migration tracks (n = 60–80 cells) were used to calculate total migration distance, distance to origin, velocity, and directional persistence of cell migration. Velocity was calculated as the total migration distance divided by 600 (600 min is total time of experiment). The distance to origin was determined as the net translocation between the initial and the final position. Directional persistence was calculated as the ratio of the distance to origin to that of the total distance migration.

SMILES: Nc1nc2ccc3oc(C(=O)O)cc(=O)c3c2s1 [Compound 5]
- IC50 [1]: > 100000 nM
- ratio of mature LC3-II to immature LC3-I [2]: no statistically significant changes in ratios

SMILES: Nc1nc2ccc3oc(-c4cccc(Oc5ccccc5)c4)cc(=O)c3c2s1 [Compound 2, 2-amino-7-(3-phenoxyphenyl)-9H-chromeno [6,5-d]thiazol-9-one]
- decrease in distance to origin (U87 shCTRL cells): 25%
- decrease in velocity (U87 shCTRL cells): 15%
- IC50 [1]: 1200 ± 300 nM
- ratio of mature LC3-II to immature LC3-I [2]: no statistically significant changes in ratios
